Data taken from publication PMC10046369, “Low-Affinity/High-Selectivity Dopamine Transport Inhibition Sufficient to Rescue Cognitive Functions in the Aging Rat” (Biomolecules, 2023).

Tests used:
Assay in all cases: biochemical
Set-up in all cases: KINOMEscan competition binding panel, per cent of control
Details in all cases: read-out: %Ctrl @ 2800nM
[1] = molecular target: T1, ABL1(F317L)-phosphorylated (Homo sapiens, UniProt P00519, F317L)
T1 construct: phosphorylated
Outline: (§1)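 Competition binding panel (KINOMEscan) across 450 human kinases and disease-relevant mutants, run to the contractor's standard protocol. Values are % control: (test signal − positive control signal)/(negative control signal − positive control signal) × 100, with lower values indicating stronger binding.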

[2] = molecular target: T2, ABL1(H396P)-nonphosphorylated (Homo sapiens, UniProt P00519, H396P)
T2 construct: nonphosphorylated
Outline: as §1

[3] = molecular target: T3, ABL1(H396P)-phosphorylated (Homo sapiens, UniProt P00519, H396P)
T3 construct: phosphorylated
Outline: as §1

[4] = molecular target: T4, ABL1(M351T)-phosphorylated (Homo sapiens, UniProt P00519, M351T)
T4 construct: phosphorylated
Outline: as §1

ABL1-nonphosphorylated = molecular target: T5, ABL1-nonphosphorylated (Homo sapiens, UniProt P00519)
T5 construct: nonphosphorylated
Outline: as §1

ASK1 = molecular target: T6, ASK1 (Homo sapiens, UniProt Q99683)
T6 construct: gene MAP3K5
Outline: as §1

AXL = AXL (Homo sapiens, UniProt P30530)
Outline: as §1

BRSK1 = BRSK1 (Homo sapiens, UniProt Q8TDC3)
Outline: as §1

CAMK1B = molecular target: T7, CAMK1B (Homo sapiens, UniProt Q6P2M8)
T7 construct: gene PNCK
Outline: as §1

CDKL2 = CDKL2 (Homo sapiens, UniProt Q92772)
Outline: as §1

CSF1R = CSF1R (Homo sapiens, UniProt P07333)
Outline: as §1

EGFR(L858R,T790M) = EGFR(L858R,T790M) (Homo sapiens, UniProt P00533, L858R/T790M)
Outline: as §1

FGFR1 = FGFR1 (Homo sapiens, UniProt P11362)
Outline: as §1

GSK3B = GSK3B (Homo sapiens, UniProt P49841)
Outline: as §1

[5] = molecular target: T8, JAK3(JH1domain-catalytic) (Homo sapiens, UniProt P52333)
T8 construct: JH1domain-catalytic
Outline: as §1

KIT(D816H) = KIT(D816H) (Homo sapiens, UniProt P10721, D816H)
Outline: as §1

LYN = LYN (Homo sapiens, UniProt P07948)
Outline: as §1

MARK3 = MARK3 (Homo sapiens, UniProt P27448)
Outline: as §1

MINK = molecular target: T9, MINK (Homo sapiens, UniProt Q8N4C8)
T9 construct: gene MINK1
Outline: as §1

PHKG1 = PHKG1 (Homo sapiens, UniProt Q16816)
Outline: as §1

PIP5K2B = molecular target: T10, PIP5K2B (Homo sapiens, UniProt P78356)
T10 construct: gene PIP4K2B
Outline: as §1

ROCK2 = ROCK2 (Homo sapiens, UniProt O75116)
Outline: as §1

[6] = molecular target: T11, RPS6KA5(Kin.Dom.1-N-terminal) (Homo sapiens, UniProt O75582)
T11 construct: Kin.Dom.1-N-terminal
Outline: as §1

TIE2 = molecular target: T12, TIE2 (Homo sapiens, UniProt Q02763)
T12 construct: gene TEK
Outline: as §1

p38-alpha = molecular target: T13, p38-alpha (Homo sapiens, UniProt Q16539)
T13 construct: gene MAPK14
Outline: as §1

KIT(D816H), sequence (P10721 whole entry D816H): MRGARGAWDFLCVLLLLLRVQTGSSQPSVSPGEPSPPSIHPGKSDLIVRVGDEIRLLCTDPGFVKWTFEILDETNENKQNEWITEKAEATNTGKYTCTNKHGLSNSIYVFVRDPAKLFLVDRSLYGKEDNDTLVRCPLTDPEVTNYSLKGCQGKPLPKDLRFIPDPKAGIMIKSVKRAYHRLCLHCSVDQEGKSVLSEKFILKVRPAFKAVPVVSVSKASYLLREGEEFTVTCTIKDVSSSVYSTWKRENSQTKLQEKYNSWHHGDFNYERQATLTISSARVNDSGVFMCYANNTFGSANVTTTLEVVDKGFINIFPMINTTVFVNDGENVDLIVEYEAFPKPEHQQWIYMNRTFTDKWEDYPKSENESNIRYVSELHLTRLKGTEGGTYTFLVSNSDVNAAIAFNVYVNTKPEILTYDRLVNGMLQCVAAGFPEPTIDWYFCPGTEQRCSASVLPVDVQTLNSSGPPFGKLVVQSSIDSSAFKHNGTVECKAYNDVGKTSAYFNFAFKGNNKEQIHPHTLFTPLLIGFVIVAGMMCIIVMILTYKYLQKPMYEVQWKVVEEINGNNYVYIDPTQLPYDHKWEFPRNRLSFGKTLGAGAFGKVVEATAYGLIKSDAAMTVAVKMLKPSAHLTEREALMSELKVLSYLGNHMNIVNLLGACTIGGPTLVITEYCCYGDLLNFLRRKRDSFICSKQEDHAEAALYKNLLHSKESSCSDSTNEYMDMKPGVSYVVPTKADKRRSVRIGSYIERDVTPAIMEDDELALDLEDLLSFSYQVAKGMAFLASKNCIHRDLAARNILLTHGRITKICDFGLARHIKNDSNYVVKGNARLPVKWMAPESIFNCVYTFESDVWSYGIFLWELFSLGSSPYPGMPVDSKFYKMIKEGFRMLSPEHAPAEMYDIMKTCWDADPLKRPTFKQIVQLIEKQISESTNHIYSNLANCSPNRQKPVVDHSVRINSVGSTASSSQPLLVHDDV
T7 sequence (Q6P2M8 whole entry): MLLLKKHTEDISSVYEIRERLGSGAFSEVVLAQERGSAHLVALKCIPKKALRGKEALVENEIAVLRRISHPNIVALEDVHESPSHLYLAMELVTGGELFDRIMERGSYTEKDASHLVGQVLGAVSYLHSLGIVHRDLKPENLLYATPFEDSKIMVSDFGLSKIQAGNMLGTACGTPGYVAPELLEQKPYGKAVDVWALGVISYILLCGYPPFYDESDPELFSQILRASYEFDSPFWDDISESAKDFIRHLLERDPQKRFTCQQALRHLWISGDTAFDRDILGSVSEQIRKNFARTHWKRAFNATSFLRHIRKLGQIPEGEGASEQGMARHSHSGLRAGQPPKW
ROCK2, sequence (O75116 whole entry): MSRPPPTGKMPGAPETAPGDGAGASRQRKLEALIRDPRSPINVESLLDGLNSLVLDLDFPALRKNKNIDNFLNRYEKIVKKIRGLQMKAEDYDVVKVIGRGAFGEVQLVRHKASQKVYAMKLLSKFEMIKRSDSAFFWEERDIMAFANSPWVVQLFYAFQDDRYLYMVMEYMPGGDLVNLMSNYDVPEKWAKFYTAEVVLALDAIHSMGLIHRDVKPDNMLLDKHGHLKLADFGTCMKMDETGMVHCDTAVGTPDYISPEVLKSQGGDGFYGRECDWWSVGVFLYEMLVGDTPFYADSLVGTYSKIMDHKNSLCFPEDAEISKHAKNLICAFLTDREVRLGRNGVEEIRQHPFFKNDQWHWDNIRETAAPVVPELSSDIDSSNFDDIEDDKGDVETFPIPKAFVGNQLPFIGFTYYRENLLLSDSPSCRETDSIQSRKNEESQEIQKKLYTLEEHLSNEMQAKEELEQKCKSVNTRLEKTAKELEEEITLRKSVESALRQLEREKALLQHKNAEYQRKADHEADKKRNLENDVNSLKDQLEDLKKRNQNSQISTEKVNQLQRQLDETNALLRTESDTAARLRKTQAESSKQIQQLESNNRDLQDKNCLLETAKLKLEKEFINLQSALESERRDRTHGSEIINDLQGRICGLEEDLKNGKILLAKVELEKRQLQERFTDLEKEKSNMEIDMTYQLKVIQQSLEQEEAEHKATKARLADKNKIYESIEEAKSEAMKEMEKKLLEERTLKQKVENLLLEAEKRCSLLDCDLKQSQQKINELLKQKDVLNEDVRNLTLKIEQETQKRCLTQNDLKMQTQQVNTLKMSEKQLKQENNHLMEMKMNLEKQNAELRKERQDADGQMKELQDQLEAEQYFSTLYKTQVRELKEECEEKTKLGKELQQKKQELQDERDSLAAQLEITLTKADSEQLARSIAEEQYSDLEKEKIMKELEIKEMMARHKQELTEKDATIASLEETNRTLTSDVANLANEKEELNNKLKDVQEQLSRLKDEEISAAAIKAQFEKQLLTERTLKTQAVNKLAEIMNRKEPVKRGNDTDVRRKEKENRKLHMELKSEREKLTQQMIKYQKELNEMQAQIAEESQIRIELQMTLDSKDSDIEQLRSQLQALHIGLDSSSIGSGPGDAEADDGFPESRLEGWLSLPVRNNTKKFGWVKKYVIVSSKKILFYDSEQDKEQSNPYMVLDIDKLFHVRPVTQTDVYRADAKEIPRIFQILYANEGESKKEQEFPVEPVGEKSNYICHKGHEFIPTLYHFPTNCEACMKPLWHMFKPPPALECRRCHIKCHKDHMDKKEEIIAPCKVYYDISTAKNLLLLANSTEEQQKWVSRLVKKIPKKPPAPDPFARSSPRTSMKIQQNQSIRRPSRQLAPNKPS
T11 sequence (O75582 whole entry): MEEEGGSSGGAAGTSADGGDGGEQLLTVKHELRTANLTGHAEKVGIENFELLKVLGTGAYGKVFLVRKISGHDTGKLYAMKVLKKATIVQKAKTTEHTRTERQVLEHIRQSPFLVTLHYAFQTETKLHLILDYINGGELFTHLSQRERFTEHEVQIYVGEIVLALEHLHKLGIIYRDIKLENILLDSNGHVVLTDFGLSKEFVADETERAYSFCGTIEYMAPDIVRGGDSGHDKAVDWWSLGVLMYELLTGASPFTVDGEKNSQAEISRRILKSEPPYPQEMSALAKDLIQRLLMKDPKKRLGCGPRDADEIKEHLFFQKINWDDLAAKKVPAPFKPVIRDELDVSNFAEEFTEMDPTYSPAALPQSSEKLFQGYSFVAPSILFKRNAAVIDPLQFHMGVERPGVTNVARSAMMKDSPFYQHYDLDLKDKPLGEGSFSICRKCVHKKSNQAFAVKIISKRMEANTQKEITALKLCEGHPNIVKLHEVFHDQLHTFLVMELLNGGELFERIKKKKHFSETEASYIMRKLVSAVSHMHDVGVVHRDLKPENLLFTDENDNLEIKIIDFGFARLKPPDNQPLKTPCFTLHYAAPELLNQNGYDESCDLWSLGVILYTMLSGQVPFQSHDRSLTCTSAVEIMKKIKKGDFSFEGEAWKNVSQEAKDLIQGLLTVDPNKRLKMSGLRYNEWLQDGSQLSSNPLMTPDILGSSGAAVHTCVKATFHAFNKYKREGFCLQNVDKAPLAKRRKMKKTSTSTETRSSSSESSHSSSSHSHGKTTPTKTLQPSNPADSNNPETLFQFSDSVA
T10 sequence (P78356 whole entry): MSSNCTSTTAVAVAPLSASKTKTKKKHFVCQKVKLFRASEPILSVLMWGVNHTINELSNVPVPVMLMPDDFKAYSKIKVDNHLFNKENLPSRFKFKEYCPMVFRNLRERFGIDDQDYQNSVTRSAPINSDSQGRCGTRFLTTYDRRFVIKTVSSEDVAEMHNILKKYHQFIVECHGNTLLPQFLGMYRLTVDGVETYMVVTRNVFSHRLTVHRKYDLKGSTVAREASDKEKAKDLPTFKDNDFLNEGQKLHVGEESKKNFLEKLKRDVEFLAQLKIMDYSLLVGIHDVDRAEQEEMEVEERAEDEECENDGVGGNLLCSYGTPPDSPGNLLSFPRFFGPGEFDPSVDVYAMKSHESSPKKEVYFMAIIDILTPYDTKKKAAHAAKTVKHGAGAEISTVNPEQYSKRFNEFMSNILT
AXL, sequence (P30530 whole entry): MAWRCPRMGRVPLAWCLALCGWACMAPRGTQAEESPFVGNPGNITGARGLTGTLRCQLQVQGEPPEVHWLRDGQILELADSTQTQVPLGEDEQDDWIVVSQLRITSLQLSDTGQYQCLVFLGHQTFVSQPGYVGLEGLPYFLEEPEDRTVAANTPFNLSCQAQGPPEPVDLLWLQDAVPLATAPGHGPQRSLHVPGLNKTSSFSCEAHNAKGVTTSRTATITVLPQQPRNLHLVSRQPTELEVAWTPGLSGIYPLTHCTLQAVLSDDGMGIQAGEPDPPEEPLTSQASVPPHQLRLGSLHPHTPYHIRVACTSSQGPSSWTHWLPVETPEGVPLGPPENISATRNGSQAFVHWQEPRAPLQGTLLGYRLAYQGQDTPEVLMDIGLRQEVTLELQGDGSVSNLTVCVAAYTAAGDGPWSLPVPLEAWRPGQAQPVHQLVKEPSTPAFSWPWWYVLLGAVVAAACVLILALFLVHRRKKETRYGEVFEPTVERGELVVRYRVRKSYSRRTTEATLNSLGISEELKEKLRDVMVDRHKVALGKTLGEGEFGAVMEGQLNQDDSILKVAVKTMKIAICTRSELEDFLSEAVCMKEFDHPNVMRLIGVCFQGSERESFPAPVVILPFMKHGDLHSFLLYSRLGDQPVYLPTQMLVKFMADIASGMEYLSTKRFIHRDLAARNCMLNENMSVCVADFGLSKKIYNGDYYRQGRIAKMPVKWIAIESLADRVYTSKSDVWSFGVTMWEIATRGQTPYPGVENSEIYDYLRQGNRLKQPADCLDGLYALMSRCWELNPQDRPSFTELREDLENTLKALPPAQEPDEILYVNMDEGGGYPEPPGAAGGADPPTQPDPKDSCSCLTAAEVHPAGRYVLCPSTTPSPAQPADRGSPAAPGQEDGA

[O-][S@@+](Cc1cncs1)C(c1ccccc1)c1ccccc1 [S-CE-123, (S)-5-((Benzhydrylsulfinyl)Methyl)Thiazole]
remaining binding at 2.8 µM [1]: 100%
remaining binding at 2.8 µM [2]: 86%
remaining binding at 2.8 µM [3]: 90%
remaining binding at 2.8 µM [4]: 100%
remaining binding at 2.8 µM (ABL1-nonphosphorylated): 93%
remaining binding at 2.8 µM (ASK1): 84%
remaining binding at 2.8 µM (AXL): 96%
remaining binding at 2.8 µM (BRSK1): 100%
remaining binding at 2.8 µM (CAMK1B): 100%
remaining binding at 2.8 µM (CDKL2): 89%
remaining binding at 2.8 µM (CSF1R): 76%
remaining binding at 2.8 µM (EGFR(L858R,T790M)): 99%
remaining binding at 2.8 µM (FGFR1): 100%
remaining binding at 2.8 µM (GSK3B): 92%
remaining binding at 2.8 µM [5]: 100%
remaining binding at 2.8 µM (KIT(D816H)): 100%
remaining binding at 2.8 µM (LYN): 83%
remaining binding at 2.8 µM (MARK3): 70%
remaining binding at 2.8 µM (MINK): 87%
remaining binding at 2.8 µM (PHKG1): 100%
remaining binding at 2.8 µM (PIP5K2B): 100%
remaining binding at 2.8 µM (ROCK2): 100%
remaining binding at 2.8 µM [6]: 100%
remaining binding at 2.8 µM (TIE2): 100%
remaining binding at 2.8 µM (p38-alpha): 100%
